Assays:
[1] = humans; ingestion of proline; Metabolism, 2004, 53(2): 241-246; cited from earlier work
[2] = test system: isolated rat hepatocytes; details: Biochem. J., 1991, 273: 57-62; cited from earlier work
[3] = test system: Male C57BL/6J mice; assay: Spontaneous motor activity after 90 minutes treadmill running exercise; assay type: in vivo, mouse; details: Example 5, FIG. 8; oral dextrin 2 g/kg; measured for 3 hours after 90 minutes running; vs water administration
Protocol: Male C57BL/6J mice were habituated to a running exercise using a treadmill, and subjected to a test. The mice were fasted overnight, and orally administered (1) dextrin 2 g/kg, or (2) dextrin 1 g/kg and L-alanine (Ala) 1 g/kg. From 15 minutes after the administration, a 90 minutes running exercise was loaded at a rate of 26 m/minute using the treadmill. After exercise loading, the mice were transferred into a cage, and the motor activity was measured using a spontaneous motor activity monitor (NS-AS01: Neuroscience Inc.) for 3 hours (dextrin and dextrin+Ala in FIG. 8). As a control, the mice administered the above-mentioned (1) or (2) were administered water instead of (1) or (2), and the spontaneous motor activity was measured in the same manner (dextrin (water administration) and dextrin+Ala (water administration) in FIG. 8). In addition, the spontaneous motor activity of mice in a resting state after fasting overnight and free of the exercise loading was measured for 3 hours in the same manner (in rest in FIG. 8).

Row | Molecule | increase of blood glucose level after glucose ingestion [1] | glycogen synthesis [2] | spontaneous motor activity after running exercise loading [3]
1 | O=C(O)[C@@H]1CCCN1 [proline] | suppresses | enhance | 
2 | NC(=O)CC[C@H](N)C(=O)O [glutamine] |  | enhance | 
3 | C[C@H](N)C(=O)O [alanine] |  | enhance | 
4 | N[C@@H](Cc1c[nH]cn1)C(=O)O [histidine] |  | enhance | 
5 | dextrin |  |  | increased
6 | NC(=O)C[C@H](N)C(=O)O [asparagine] |  | enhance | 
